Measurements: patent US10342853B2, “Leptin active peptide having D helix region mutations, coding gene thereof, and application thereof” (SHANGHAI YUANXIN BIOCHEMICAL SCIENCE AND TECHNOLOGY CO. LTD., priority 2015, dated 2019)

System: 3T3-L1 preadipocyte line
Test: In-vitro lipid-lowering (adipocyte-degrading) activity analysis, MTT detection
Type: cell-based
Experimental: Lipid degradation activity of the synthesized leptin active peptide having helix D region mutation is analyzed on a cellular level by taking a 3T3-L1 preadipocyte line as a model. Specific operations are as follows:
b: an early differentiation stage D0-D2 (0-2nd day of induced differentiation); and
c: a mature adipocyte stage D9 (the 9th day of induced differentiation);
a. leptin active peptide having helix D region mutation (PEP-D): diluted to 10^−3M with purified water and preserved at −20 degree C. for later use. After an experiment is started, working concentrations have 3 concentration gradients, that is, 10^−6M, 10^−9M and 10^−11M;
b. positive control. I: H-LEP, recombinant human-derived leptin protein (10221-HNAE, Beijing Sino Biological Inc.), diluted to 10^−6M with purified water and preserved at −20 degree C. for later use. After an experiment is started, the working concentration is 10^−9M;
c. positive control 2: Ros (Rosiglitazone, 82408, Sigma), diluted to a stock solution with a concentration of 2518 μM with DMSO and preserved at −20 degree C. for later use. After an experiment is started, the stock solution is diluted to a working solution of 0.5 μM with cell culture fluid;
d. negative control (Control): equivalent quantity of PBS
(1) Inoculating 3T3-L1 preadipocytes in corning cell bind 96-well plates (totally inoculated with 3 plates, respectively plate a, plate b and plate c), wherein the inoculation density is 4500 cells/well; and marking, and standing and culturing at 37 degree C. in a 5% CO2 incubator. Each sample of each plate is operated repeatedly for 3 times, and the whole experiment is repeated for 3 times;
(2) Continuously culturing for 48 hours after the cells are merged to 100% (enabling the cells to exit from a growth cycle, and starting induced differentiation); and
i, taking out the plate a; respectively adding different amounts of leptin active peptide having helix D region mutation (PEP-D) to enable the working concentrations to be respectively 3 concentration gradients, that is, 10^−6M, 10^−9M and 10^−11M; setting 2 positive controls, a negative control (PBS) and a blank control (3 repeated holes are set for each sample), and continuously standing and culturing at 37 degree C. in the 5% CO2 incubator.
ii, when culturing to 45 hours (that is, 3 hours before the end of drug treatment), taking out the plate a, and measuring MTT (preadipocytes). Specific operations: adding 20 μL of 5 mg/mL of MTT solution into each well, continuously standing and culturing at 37 degree C. in the 5% CO2 incubator for 3 hours, sucking and discarding the culture solution in the wells, adding 150 μL of DMSO into each well, horizontally shaking for 10 min, detecting a light absorption value at 492 nm by a microplate reader, and drawing a growth curve;
i, taking out the plate b; adding the differentiation induced liquid I (D0); respectively adding the leptin active peptide having helix D region mutation (PEP-D); setting 2 positive controls, a negative control (PBS) and a blank control (3 repeated holes are set for each sample), and continuously standing and culturing at 37 degree C. in the 5% CO2 incubator.
ii, when culturing to 45 hours (that is, 3 hours before the end of drug treatment), taking out the plate b, and measuring MTT (at the early differentiation stage, D0-D2). Specific operations: adding 20 μL, of 5 mg/mL of MTT solution into each well; continuously standing and culturing at 37 degree C. in the 5% CO2 incubator for 3 hours; sucking and discarding the culture solution in the wells; adding 150 μL of DMSO into each well; horizontally shaking for 10 min; detecting a light absorption value at 492 nm by the microplate reader; and drawing a growth curve;
i, taking out the plate c; adding the differentiation induced liquid I (D0) into each well; and continuously standing and culturing at 37 degree C. in the 5% CO2 incubator for 48 hours; […]

Row | Substance | adipocyte lysis activity vs. negative control (Control, PBS) (MTT, FIG. 2 mark a, P<0.05, H-LEP 10^−9M, Ros 0.5 μM) | adipocyte lysis activity vs. H-LEP (MTT, FIG. 2 mark b, P<0.05) | adipocyte lysis activity vs. Ros (MTT, FIG. 2 mark c, P<0.05) | concentration dependence of lipid-lowering activity (MTT, PEP-D at 10^−6M, 10^−9M and 10^−11M) | concentration with optimal lipid-lowering effect (MTT, of 10^−6M, 10^−9M and 10^−11M tested, on a whole) | dependence of lipid-lowering activity on cell differentiation period (MTT, preadipocytes, D0-D2, D9) | adipocyte-degrading activity compared with positive controls H-LEP and Ros (MTT, three cell differentiation stages (preadipocytes, early differentiation D0-D2, mature adipocyte D9), H-LEP 10^−9M, Ros 0.5 μM) | cell lysis effects at three stages (preadipocytes stage, differentiation stage (D0-D2), mature adipocyte stage (D9))
1 | H-LEP: recombinant human-derived leptin protein (10221-HNAE, Beijing Sino Biological Inc.), positive control | obviously better than that of the negative control |  |  |  |  |  |  | 
2 | STEVVALDGLQGSLQTMLLQLEYS (An amino acid sequence of the leptin active peptide having helix D region mutation) [PEP-D] |  | obviously better than that of the H-LEP | obviously better than that of the Ros | obvious concentration dependence | 10^−9 M | dependence in a cell differentiation period | obviously better than that of positive control-human-derived leptin protein (H-LEP) and a commercially available drug rosiglitazone (Ros) | obvious cell lysis effects
